Laboratory results from patent US7951775B2, “Methods and pharmaceutical compositions for GnRH-I and GnRH-II modulation of T-cell activity, adhesion, migration and extravasation” (priority 2001, dated 2011).
Where a SMILES comes first, the peptide text is derived from it. [ ]: non-standard residue; d: D form. dPhe(4-Cl) = N[C@H](Cc1ccc(Cl)cc1)C(=O)O; d2Nal = N[C@H](Cc1ccc2ccccc2c1)C(=O)O; dCit = NC(=O)NCCC[C@@H](N)C(=O)O; d3Pal = N[C@H](Cc1cccnc1)C(=O)O

Experiments:
[1] = system: normal human T-cells; assay: Quantitative RT-PCR of 67 kDa laminin receptor mRNA in T-cells; type: cell-based
[2] = system: normal human T-cells; assay: Double immunofluorescence staining (FACS) for surface 67 kDa laminin receptor and TCR; type: cell-based
Protocol: Normal human T-cells, isolated from fresh peripheral blood lymphocytes, or EL-4 T-lymphocyte cells were subjected to double immunofluorescence staining, using a mouse monoclonal anti-67 kDa LR antibody (100 μl of 1:20 dilution per 1×10^6 cells/tube; 30 minutes on ice), or normal mouse sera for control. The cells were then stained with an FITC-conjugated goat anti-mouse IgG (100 μl of 1:100 dilution), and PE-conjugated mouse anti-human TCR αβ mAb (2 μl of stock). Cells that were stained only with the second and third antibodies served as additional negative controls. Fluorescence profiles were recorded in a FACSORT. To determine whether GnRH-II and GnRH-I trigger not only the gene transcription but also the surface expression of the 67 kDa LR, normal human T-cells were treated with either GnRH-II or GnRH-I for 18-66 h and subjected to double immunofluorescence staining using a monoclonal antibody (mAb) that is specific for the 67 kDa LR, and a phycoerythrin (PE)-conjugated anti-TCRαβ mAb (to confirm the T-cell origin of the cells). FIGS. 2A-2C show the staining for the untreated, GnRH-I treated and GnRH-II treated T-cells, respectively. The FACS profiles can be interpreted by division according to four categories: 1. Negative staining for both mAbs (double negative, lower left quadrant); 2. Single positive staining only with the anti-LR mAb (lower right quadrant), 3. Single positive staining only with the anti-TCR mAb (upper left quadrant); 4. Double positive staining with both mAbs (upper right quadrant). […] In different experiments, each using freshly isolated T-cells from a different human donor, both GnRH II and GnRH I repeatedly elevated the laminin receptor expression level, but the magnitude of elevation varied within a range of 6-40%. Such variations between T-cell populations originating from different donors are often observed in respect to various T-cell features and functions.

For `CC(=O)N[C@H](Cc1ccc2ccccc2c1)C(=O)N[C@H](Cc1ccc(Cl)cc1)C(=O)N[C@H](Cc1cccnc1)C(=O)N[C@@H](CO)C(=O)N[C@@H](Cc1ccc(O)cc1)C(=O)N[C@H](CCCNC(N)=O)C(=O)N[C@@H](CC(C)C)C(=O)N[C@@H](CCCNC(=N)N)C(=O)N1CCC[C@H]1C(=O)N[C@H](C)C(N)=O` [Cetrorelix, reference compound] (Ac-[d2Nal][dPhe(4-Cl)][d3Pal]SY[dCit]LRP[dA]-NH2), the “block of GnRH-I induced upregulation in gene expression of the 67 kDa LR” value ([1]; 100 nM Cetrorelix + 10 nM GnRH-I (FIG. 2D)) was “blocked”, the “block of GnRH-II effect on gene expression of the 67 kDa LR” value ([1]; 100 nM Cetrorelix + 10 nM GnRH-II (FIG. 2D)) was “did not block” and the “block of GnRH-I induced upregulation in surface expression of the 67 kDa LR” value ([2]; 100 nM Cetrorelix + 10 nM GnRH-I (FIG. 2E)) was “blocked”. The “block of GnRH-II effect on surface expression of the 67 kDa LR” value ([2]; 100 nM Cetrorelix + 10 nM GnRH-II (FIG. 2E)) was “did not block”.
